US8598183B2, “Solid state forms of a potent HCV inhibitor” (Boehringer Ingelheim International GmbH, priority 2010, dated 2013)

Tests used:
[1] = Powder dissolution of triturated mixtures in capsules in 500 mL pH 6.8 buffer; format: physicochemical; settings: for % Release, Average of n = 2 (range) / % Release, average / % Release / % Release, average (range): capsule; for % Release, average: 200 mg drug + Meglumine 100 mg; for % Release: 200 mg drug + Pluronic acid 100 mg, n = 1
Description: One class of solubilizer excipients, basifiers, act by increasing the microenvironment pH and thereby increasing the local solubility of the drug (for a drug containing an acid moiety). Another class of solubilizer excipients, surfactants, also act by increasing the local solubility of the drug. […] For example, an enhancement in dissolution was obtained when surfactants, for example, sodium lauryl sulfate or Vitamin E TPGS, were used in combination with basifiers, for example, L-arginine, meglumine or L-lysine. […] For example, only 1% drug release was obtained when Compound (1) sodium salt crystalline was present. The % drug release was 54% at 60 minutes in the presence of 100 mg Arginine alone and 59% in the presence of Sodium lauryl sulfate alone (Table 2). However, in presence of 100 mg of Arginine along with 100 mg of Sodium lauryl sulfate, the % drug release increased to 93% at 60 minutes (Table 3) indicating enhancement in dissolution when both surfactant and basifier were used in combination.

[2] = system: HCV infection; assay: Human clinical trials in HCV-infected patients; format: in vivo
[3] = Powder dissolution testing in pH 6.8 buffer, USP Type II Paddle apparatus; format: physicochemical; settings: 60 minutes, listed as crystalline Compound (1) sodium salt
[4] = Storage stability of concentrated supersaturated aqueous solutions; format: physicochemical; settings: 10 month storage at room temperature
Experimental: This unique behavior of high solubility at high drug concentrations is most likely attributable to tendency of the drug substance to self-micellize. A CMC value of 41.4 mM (corresponding to 28 mg/mL) is estimated.

Cn1c(C2(NC(=O)c3ccc4c(C5CCCC5)c(-c5ncc(Br)cn5)n(C)c4c3)CCC2)nc2ccc(/C=C/C(=O)[O-])cc21.[Na+] [Compound (1) sodium salt]
% Release, Average of n = 2 (range) ([1]; 200 mg drug + Lysine + VitE TPGS (40 mg + 20 mg), 30 min): 69 (69-70) % | % Release, Average of n = 2 (range) ([1]; 200 mg drug + Lysine + VitE TPGS (40 mg + 20 mg), 60 min): 71 (70-72) % | % Release, Average of n = 2 (range) ([1]; 200 mg drug + Lysine + VitE TPGS (100 mg + 100 mg), 15 min): 42 (29-55) % | % Release, Average of n = 2 (range) ([1]; 200 mg drug + Lysine + VitE TPGS (100 mg + 100 mg), 30 min): 79 (77-81) % | % Release, Average of n = 2 (range) ([1]; 200 mg drug + Lysine + VitE TPGS (100 mg + 100 mg), 60 min): 83 (82-83) % | % Release, Average of n = 2 (range) ([1]; 200 mg drug + Lysine + VitE TPGS (100 mg + 100 mg), 90 min): 81 (81-82) % | % Release, average ([1]; 90 (infinity), n = 2): 49% | % Release, average ([1]; 15 min, n = 2): 47% | % Release, average ([1]; 30 min, n = 2): 48% | % Release, average ([1]; 60 min, n = 2): 48% | % Release, Average of n = 2 (range) ([1]; 200 mg drug + Meglumine + SDS (40 mg + 20 mg), 15 min): 66 (61-71) % | % Release, Average of n = 2 (range) ([1]; 200 mg drug + Meglumine + SDS (40 mg + 20 mg), 30 min): 73 (71-75) % | % Release, Average of n = 2 (range) ([1]; 200 mg drug + Meglumine + SDS (40 mg + 20 mg), 60 min): 70 (69-71) % | % Release, Average of n = 2 (range) ([1]; 200 mg drug + Meglumine + SDS (40 mg + 20 mg), 90 min): 68 (67-69) % | % Release, Average of n = 2 (range) ([1]; 200 mg drug + Meglumine + SDS (100 mg + 100 mg), 15 min): 81 (79-83) % | % Release, Average of n = 2 (range) ([1]; 200 mg drug + Meglumine + SDS (100 mg + 100 mg), 30 min): 87 (86-88) % | % Release, Average of n = 2 (range) ([1]; 200 mg drug + Meglumine + SDS (100 mg + 100 mg), 60 min): 83 (80-87) % | % Release, Average of n = 2 (range) ([1]; 200 mg drug + Meglumine + SDS (100 mg + 100 mg), 90 min): 86 (85-87) % | % Release, Average of n = 2 (range) ([1]; 200 mg drug + Meglumine + VitE TPGS (40 mg + 20 mg), 15 min): 52 (33-70) % | % Release, Average of n = 2 (range) ([1]; 200 mg drug + Meglumine + VitE TPGS (40 mg + 20 mg), 30 min): 73 (73-73) % | % Release, Average of n = 2 (range) ([1]; 200 mg drug + Meglumine + VitE TPGS (40 mg + 20 mg), 60 min): 73 (73-74) % | % Release, Average of n = 2 (range) ([1]; 200 mg drug + Meglumine + VitE TPGS (40 mg + 20 mg), 90 min): 71 (70-72) % | % Release, Average of n = 2 (range) ([1]; 200 mg drug + Meglumine + VitE TPGS (100 mg + 100 mg), 15 min): 81 (81-81) % | % Release, Average of n = 2 (range) ([1]; 200 mg drug + Meglumine + VitE TPGS (100 mg + 100 mg), 30 min): 85 (84-86) % | % Release, Average of n = 2 (range) ([1]; 200 mg drug + Meglumine + VitE TPGS (100 mg + 100 mg), 60 min): 86 (84-87) % | % Release, Average of n = 2 (range) ([1]; 200 mg drug + Meglumine + VitE TPGS (100 mg + 100 mg), 90 min): 82 (80-84) % | % Release ([1]; 90 (infinity)): 13% | % Release ([1]; 15 min): 3% | % Release ([1]; 30 min): 12% | % Release ([1]; 60 min): 12% | % Release, average (range) ([1]; 200 mg drug + SDS 100 mg, 90 (infinity), n = 2): 49 (45-53) % | % Release, average (range) ([1]; 200 mg drug + SDS 100 mg, 15 min, n = 2): 57 (56-57) % | % Release, average (range) ([1]; 200 mg drug + SDS 100 mg, 30 min, n = 2): 61 (60-63) % | % Release, average (range) ([1]; 200 mg drug + SDS 100 mg, 60 min, n = 2, listed as Compound (1) Na Salt): 59 (58-60) % | % Release, average (range) ([1]; 200 mg drug + SDS 100 mg, 60 min, n = 2, listed as Compound (1) sodium salt crystalline): 59% | % Release, average (range) ([1]; 200 mg drug + Tris 100 mg, 90 (infinity), n = 3): 41 (33-46) % | % Release, average (range) ([1]; 200 mg drug + Tris 100 mg, 15 min, n = 3): 40 (34-43) % | % Release, average (range) ([1]; 200 mg drug + Tris 100 mg, 60 min, n = 3): 44 (35-48) % | % Release, average (range) ([1]; 200 mg drug + Vit E TPGS 100 mg, 90 (infinity), n = 2): 27 (27-27) % | % Release, average (range) ([1]; 200 mg drug + Vit E TPGS 100 mg, 15 min, n = 2): 24 (24-24) % | % Release, average (range) ([1]; 200 mg drug + Vit E TPGS 100 mg, 30 min, n = 2): 27 (27-27) % | % Release, average (range) ([1]; 200 mg drug + Vit E TPGS 100 mg, 60 min, n = 2): 27 (27-27) % | % Release, average (range) ([1]; Drug alone 200 mg, 90 (infinity), n = 2): 1 (1-2) % | % Release, average (range) ([1]; Drug alone 200 mg, 15 min, n = 2): 1 (1-1) % | % Release, average (range) ([1]; Drug alone 200 mg, 30 min, n = 2): 1 (1-1) % | % Release, average (range) ([1]; Drug alone 200 mg, 60 min, n = 2): 1 (1-2) % | % drug release ([1]; drug alone, no basifier or surfactant, time not stated): 1% | effectiveness in treating HCV-infected patients [2]: demonstrated effectiveness | % dissolved (kinetic dissolution) [3]: < 5% | precipitation of highly concentrated supersaturated solutions [4]: no precipitation observed
